Where two headings read alike, the source gives them in different places.
Assays:
[1] = tested on: Plasmodium berghei (Pb-Luc) exoerythrocytic-stage parasites; details: for normalized signal at concentration 10 / normalized signal at concentration 0.000508053 / normalized signal at concentration 0.00152416 / normalized signal at concentration 0.00457247 / normalized signal at concentration 0.0137174 / normalized signal at concentration 0.0411523 / normalized signal at concentration 0.123457 / normalized signal at concentration 0.37037 / normalized signal at concentration 1.11111 / normalized signal at concentration 3.33333: fraction of control; for IC50: read-out: PbLuc_IC50
HepG2-A16-CD81EGFP cells = details: for IC50: read-out: Tox_IC50, HepG2 cytotoxicity
[2] = first series of dose-response columns
[3] = sheet 2nd round, Broad compounds, dose response
[4] = second series of dose-response columns
[5] = sheet 2nd round, maximal inhibition in dose response
[6] = sheet 2nd round, Pb-Luc exoerythrocytic stage, 10-point dose response, top concentration 10
[7] = second series of columns (replicate)

SMILES: CN(C)c1ccc2c(c1)[C@@H]1C[C@@H](CC(=O)NC3CCCCC3)O[C@@H](CO)[C@@H]1O2 [BRD-K29474997-001-01-2]
- normalized signal at concentration 10 [1, 2]: 1.33
- normalized signal at concentration 0.000508053 ([1]; first series): 1.31
- normalized signal at concentration 0.00152416 ([1]; first series): 1.11
- normalized signal at concentration 0.00457247 ([1]; first series): 1.19
- normalized signal at concentration 0.0137174 ([1]; first series): 0.90
- normalized signal at concentration 0.0411523 ([1]; first series): 0.87
- normalized signal at concentration 0.123457 ([1]; first series): 0.89
- normalized signal at concentration 0.37037 ([1]; first series): 0.92
- normalized signal at concentration 1.11111 ([1]; first series): 1.25
- normalized signal at concentration 3.33333 ([1]; first series): 0.99
- IC50 [1, 3]: > 10 µM
- normalized signal at concentration 10 [1, 4]: 1.28
- normalized signal at concentration 0.000508053 ([1]; second series): 1.12
- normalized signal at concentration 0.00152416 ([1]; second series): 1.06
- normalized signal at concentration 0.00457247 ([1]; second series): 1.06
- normalized signal at concentration 0.0137174 ([1]; second series): 1.04
- normalized signal at concentration 0.0411523 ([1]; second series): 1.09
- normalized signal at concentration 0.123457 ([1]; second series): 0.92
- normalized signal at concentration 0.37037 ([1]; second series): 0.91
- normalized signal at concentration 1.11111 ([1]; second series): 1.04
- normalized signal at concentration 3.33333 ([1]; second series): 1.16
- PbLuc_max_inhibition (%) [1, 5]: 13%
- IC50 (HepG2-A16-CD81EGFP cells; sheet 2nd round): > 10 µM
- Tox_max_inhibition (%) (HepG2-A16-CD81EGFP cells; [5]): 12%

SMILES: CC(C)[C@@H]1COCc2cnnn2CCC[C@H](C)C(=O)N1 [BRD-K01882341-001-02-9]
- normalised signal at concentration 0.000508053 (first series) ([1]; concentration 0.000508053, first series): 0.8014
- normalised signal at concentration 0.000508053 (second series) ([1]; concentration 0.000508053, second series): 0.9562
- normalised signal at concentration 0.00152416 (first series) ([1]; concentration 0.00152416, first series): 0.9047
- normalised signal at concentration 0.00152416 (second series) ([1]; concentration 0.00152416, second series): 0.8755
- normalised signal at concentration 0.00457247 (first series) ([1]; concentration 0.00457247, first series): 0.9797
- normalised signal at concentration 0.00457247 (second series) ([1]; concentration 0.00457247, second series): 1.034
- normalised signal at concentration 0.0137174 (first series) ([1]; concentration 0.0137174, first series): 0.9629
- normalised signal at concentration 0.0137174 (second series) ([1]; concentration 0.0137174, second series): 0.9854
- normalised signal at concentration 0.0411523 (first series) ([1]; concentration 0.0411523, first series): 0.8726
- normalised signal at concentration 0.0411523 (second series) ([1]; concentration 0.0411523, second series): 0.8168
- normalised signal at concentration 0.123457 (first series) ([1]; concentration 0.123457, first series): 0.9418
- normalised signal at concentration 0.123457 (second series) ([1]; concentration 0.123457, second series): 1.121
- normalised signal at concentration 0.37037 (first series) ([1]; concentration 0.37037, first series): 0.9345
- normalised signal at concentration 0.37037 (second series) ([1]; concentration 0.37037, second series): 0.7926
- normalised signal at concentration 1.11111 (first series) ([1]; concentration 1.11111, first series): 0.8828
- normalised signal at concentration 1.11111 (second series) ([1]; concentration 1.11111, second series): 0.9806
- normalised signal at concentration 3.33333 (first series) ([1]; concentration 3.33333, first series): 0.9641
- normalised signal at concentration 3.33333 (second series) ([1]; concentration 3.33333, second series): 0.9379
- normalised signal at concentration 10 (first series) ([1]; concentration 10, first series of dose columns): 1.091
- normalised signal at concentration 10 (second series) ([1]; concentration 10, second series of dose columns): 0.8693
- IC50 ([1]; sheet "2nd round", Broad compounds, dose response top concentration 10): > 10 µM
- PbLuc_max_inhibition (%) ([1]; sheet "2nd round"): 21%
- IC50 (HepG2-A16-CD81EGFP cells; sheet "2nd round"): > 10 µM
- Tox_max_inhibition (%) (HepG2-A16-CD81EGFP cells; sheet "2nd round"): 4.53%

SMILES: COCC(=O)N1C[C@H](C)[C@@H](OC)CN(C)C(=O)c2ccc(NC(=O)Nc3cccc(F)c3)cc2OC[C@@H]1C [BRD-K86826411-001-01-1]
- normalized signal at concentration 10 [1, 2]: 0.9867
- normalized signal at concentration 0.000508053 ([1]; first series): 0.8374
- normalized signal at concentration 0.00152416 ([1]; first series): 0.9593
- normalized signal at concentration 0.00457247 ([1]; first series): 1.078
- normalized signal at concentration 0.0137174 ([1]; first series): 1.13
- normalized signal at concentration 0.0411523 ([1]; first series): 1.203
- normalized signal at concentration 0.123457 ([1]; first series): 1.151
- normalized signal at concentration 0.37037 ([1]; first series): 1.155
- normalized signal at concentration 1.11111 ([1]; first series): 1.129
- normalized signal at concentration 3.33333 ([1]; first series): 1.057
- IC50 [1, 3]: > 10 µM
- normalized signal at concentration 10 [1, 4]: 0.6676
- normalized signal at concentration 0.000508053 ([1]; second series): 0.905
- normalized signal at concentration 0.00152416 ([1]; second series): 1.0576
- normalized signal at concentration 0.00457247 ([1]; second series): 1.018
- normalized signal at concentration 0.0137174 ([1]; second series): 1.011
- normalized signal at concentration 0.0411523 ([1]; second series): 0.9885
- normalized signal at concentration 0.123457 ([1]; second series): 1.0489
- normalized signal at concentration 0.37037 ([1]; second series): 0.9498
- normalized signal at concentration 1.11111 ([1]; second series): 1.1227
- normalized signal at concentration 3.33333 ([1]; second series): 1.155
- PbLuc_max_inhibition (%) [1, 5]: 33%
- IC50 (HepG2-A16-CD81EGFP cells; sheet 2nd round): > 10 µM
- Tox_max_inhibition (%) (HepG2-A16-CD81EGFP cells; [5]): 13%

SMILES: O=C(O)C[C@H]1CC[C@@H]2[C@H](COC[C@@H](O)CN2S(=O)(=O)c2ccc(Oc3ccccc3)cc2)O1 [BRD-K61788733-001-01-3]
- normalized signal at concentration 0.000508053 ([1]; first series of columns): 0.8641
- normalized signal at concentration 0.00152416 ([1]; first series of columns): 0.8788
- normalized signal at concentration 0.00457247 ([1]; first series of columns): 0.8741
- normalized signal at concentration 0.0137174 ([1]; first series of columns): 0.9455
- normalized signal at concentration 0.0411523 ([1]; first series of columns): 0.9154
- normalized signal at concentration 0.123457 ([1]; first series of columns): 0.9561
- normalized signal at concentration 0.37037 ([1]; first series of columns): 0.927
- normalized signal at concentration 1.11111 ([1]; first series of columns): 1.099
- normalized signal at concentration 3.33333 ([1]; first series of columns): 1.256
- normalized signal at concentration 10 ([1]; first series of columns): 1.046
- IC50 [1, 6]: > 10 µM
- normalized signal at concentration 0.000508053 [1, 7]: 1.03
- normalized signal at concentration 0.00152416 [1, 7]: 0.992
- normalized signal at concentration 0.00457247 [1, 7]: 0.8804
- normalized signal at concentration 0.0137174 [1, 7]: 0.7616
- normalized signal at concentration 0.0411523 [1, 7]: 1.066
- normalized signal at concentration 0.123457 [1, 7]: 0.77
- normalized signal at concentration 0.37037 [1, 7]: 0.8648
- normalized signal at concentration 1.11111 [1, 7]: 0.993
- normalized signal at concentration 3.33333 [1, 7]: 1.071
- normalized signal at concentration 10 [1, 7]: 1.076
- PbLuc_max_inhibition (%) [1, 5]: 24%
- IC50 (HepG2-A16-CD81EGFP cells; sheet 2nd round): > 10 µM
- Tox_max_inhibition (%) (HepG2-A16-CD81EGFP cells; [5]): 4.62%

SMILES: Cc1noc(C)c1S(=O)(=O)N(C)C[C@H]1OCc2cn(nn2)CCCC(=O)N([C@@H](C)CO)C[C@@H]1C [BRD-K72210630-001-02-7]
- normalized signal at concentration 0.000508053 ([1]; first series of columns): 0.823
- normalized signal at concentration 0.00152416 ([1]; first series of columns): 0.7982
- normalized signal at concentration 0.00457247 ([1]; first series of columns): 0.9501
- normalized signal at concentration 0.0137174 ([1]; first series of columns): 0.8214
- normalized signal at concentration 0.0411523 ([1]; first series of columns): 0.9732
- normalized signal at concentration 0.123457 ([1]; first series of columns): 0.8751
- normalized signal at concentration 0.37037 ([1]; first series of columns): 1.086
- normalized signal at concentration 1.11111 ([1]; first series of columns): 0.9189
- normalized signal at concentration 3.33333 ([1]; first series of columns): 0.9135
- normalized signal at concentration 10 ([1]; first series of columns): 1.047
- IC50 [1, 6]: > 10 µM
- normalized signal at concentration 0.000508053 [1, 7]: 1.029
- normalized signal at concentration 0.00152416 [1, 7]: 0.9027
- normalized signal at concentration 0.00457247 [1, 7]: 0.8403
- normalized signal at concentration 0.0137174 [1, 7]: 1.03
- normalized signal at concentration 0.0411523 [1, 7]: 0.8593
- normalized signal at concentration 0.123457 [1, 7]: 1
- normalized signal at concentration 0.37037 [1, 7]: 0.7692
- normalized signal at concentration 1.11111 [1, 7]: 0.8393
- normalized signal at concentration 3.33333 [1, 7]: 0.8793
- normalized signal at concentration 10 [1, 7]: 0.8029
- PbLuc_max_inhibition (%) [1, 5]: 23%
- IC50 (HepG2-A16-CD81EGFP cells; sheet 2nd round): > 10 µM
- Tox_max_inhibition (%) (HepG2-A16-CD81EGFP cells; [5]): 5%

SMILES: COc1cccc(S(=O)(=O)N2CCCCN3[C@H](CO)[C@H](c4ccc(C#CCC(C)C)cc4)[C@H]3C2)c1 [BRD-K69197522-001-01-4]
- normalized signal at concentration 0.000508053 ([1]; first series of columns): 0.7703
- normalized signal at concentration 0.00152416 ([1]; first series of columns): 0.9681
- normalized signal at concentration 0.00457247 ([1]; first series of columns): 1.135
- normalized signal at concentration 0.0137174 ([1]; first series of columns): 0.9046
- normalized signal at concentration 0.0411523 ([1]; first series of columns): 0.9718
- normalized signal at concentration 0.123457 ([1]; first series of columns): 0.7468
- normalized signal at concentration 0.37037 ([1]; first series of columns): 1.034
- normalized signal at concentration 1.11111 ([1]; first series of columns): 0.9136
- normalized signal at concentration 3.33333 ([1]; first series of columns): 0.9728
- normalized signal at concentration 10 ([1]; first series of columns): 0.6517
- IC50 [1, 6]: > 10 µM
- normalized signal at concentration 0.000508053 [1, 7]: 0.9237
- normalized signal at concentration 0.00152416 [1, 7]: 0.8984
- normalized signal at concentration 0.00457247 [1, 7]: 1.009
- normalized signal at concentration 0.0137174 [1, 7]: 0.9117
- normalized signal at concentration 0.0411523 [1, 7]: 0.9735
- normalized signal at concentration 0.123457 [1, 7]: 1.068
- normalized signal at concentration 0.37037 [1, 7]: 0.8113
- normalized signal at concentration 1.11111 [1, 7]: 0.8704
- normalized signal at concentration 3.33333 [1, 7]: 1.117
- normalized signal at concentration 10 [1, 7]: 0.6736
- PbLuc_max_inhibition (%) [1, 5]: 35%
- IC50 (HepG2-A16-CD81EGFP cells; sheet 2nd round): > 10 µM
- Tox_max_inhibition (%) (HepG2-A16-CD81EGFP cells; [5]): 6.65%

Source: publication PMC4890880 (ACS infectious diseases, 2016)
